Reference: patent publication US20070218080A1, “Peptide antigen of human papillomavirus type 16 and application thereof” (Mackay Memorial Hospital, priority 2006, published 2007)

What was measured:
[1] = target: T1, HLA-A2.1 antigens on T2 cell surface (Homo sapiens, UniProt P04439, D140Y/D185E/D98H/E176V/E277Q/G131W/G231S/I119V/I121R/I166T/I218V/L300P/L318F/N151K/N90K/P208A/P217A/Q86G/Q94H/R138H/R169H/T345S); assay: T2 cell binding assay; assay type: cell-based; details: T2 cells, 10 μg/ml synthetic peptide, 20 hours at 26° C., flow cytometry
T1 construct: endogenous in cells; host or cells: T2 cells
Description: The binding test of the peptide in the invention was subjected to a T2 cell binding assay to measure the binding affinity for HLA-A2.1 antigens on T2 cell surface. T2 cells lack genes coding for transporter proteins for antigenic peptides (TAP1/TAP2) and therefore is not able to translocate peptide antigens processed by cells into the endoplasmic reticulum (ER). […] Therefore, the synthetic peptide antigens were used directly, not through cell processing, for the binding test with HLA-A2.1 antigens on T2 cell surface.
T2 cells that had been incubated overnight at 26° C. in RPMI 1640 containing 5% fetal bovine serum (FBS) were mixed with 10 μg/ml of pre-prepared synthetic peptide for 20 hours at 26° C. in RPMI containing 5% FCS and 5 μg/ml human β 2-microglobulin (β 2 m). The cells were then washed twice, incubated at 37° C. for 2 hours. […] Then the cells were incubated with fluorescein isothiocyanate (FITC) labeled anti-human HLA-A2.1 antibodies (BD Biosciences Pharmingen) to stain HLA-A2.1. The stains were fixed with 1% paraformaldehyde, and analyzed by flow cytometry. Because the binding of synthetic peptides and HLA-A2.1 antigens would be presented on the surface of lymphocytes, which could be recognized and bound by anti-human HLA-A2.1 antibodies. Therefore the fluorescein indicated the binding of synthetic peptides.

[2] = test system: CD8+IFN-γ+ double-positive cells; assay: In vivo induction of CD8 T cells proliferation; design: species or system HLA-A2.1 transgenic C57BL/6 mice
Experimental: 4-6 week-old HLA-A2.1 transgenic C57BL/6 mice were immunized with 100 μl containing 100 μg of SEQ ID NO: 1 peptide in adjuvant at 0.2 μM of CpG phosphorethioate oligodeoxynucleotide 1826 (CpG ODN 1826) via intramuscular injection three times at one week intervals. Five days after the third immunization, the splenocytes of mice were recovered and the numbers of CD8^+IFN-γ^+ double-positive cells were measured using flow cytometry analyses.

[3] = test system: β-lymphocyte (HMy2.CIR, ATCC No.: CRL-1993) target cells; assay: Cytotoxicity assay (CTL activity); assay type: cell-based; details: splenocytes of immunized mice as effector cells
Experimental: The β-lymphocyte (HMy2.CIR, ATCC No.: CRL-1993) target cells were labeled with PKH-26 and carboxyfluorescein diacetate succinimidyl ester (CFSE). 4-6 week-old HLA-A2.1 transgenic C57BL/6 mice were immunized as described in Example 2 with 100 μl of the same dosage of SEQ ID NO: 1 peptide in adjuvant of CpG oligodeoxynucleotide via intramuscular injection three times at one week intervals. Five days after the third immunization, the splenocytes of mice were recovered as effector cells and incubated with the target cells […].
Target cells labeled with two dyes were cultivated in the absence of effector cells as the control group. When membrane damage occurs, the dye is almost instantaneously lost and the cells are no longer able to take up the charged dye.

Substance	fluorescence intensity (FITC anti-human HLA-A2.1 staining) [1]	number of CD8+IFN-γ+ double-positive cells ([2]; splenocytes five days after third immunization, 100 μg peptide with CpG ODN 1826, intramuscular, three times at one week intervals) [%]	increase of CD8+IFN-γ+ double-positive cells in comparison to the irrelevant stimulator ([2]; splenocytes of immunized mice vs control group)	cytolytic activity ([3]; ET ratio 10) [%]	cytolytic activity ([3]; ET ratio 150) [%]
SEQ ID NO: 1: synthetic 9-amino-acid peptide, 63th to 71th amino acid sequence of HPV-16 E5 protein (YIIFVYIPL; Human papillomavirus type 16)	around 22%	0.32	about 4 fold	18	33
positive control: HLA-A2.1 binding peptide obtained from tyrosinase peptide 369-377, positive control [reference compound]	around 35%	–	–	–	–
